Experimental data: PubChem BioAssay AID1996
Values after ≈ are worked out from the molar mass of the structure shown.

Conditions: buffer; pH 7.4; 200.0 µM

SMILES | solubility kinetic [mg/mL]
CSCC[C@H](NC(=O)C1CCN(S(=O)(=O)c2ccc(C)cc2C)CC1)c1nc2ccccc2[nH]1 | 0.0033 (≈ 6.59 µM)
C/C(=N/OC(=O)c1ccc(Cl)cc1Cl)c1oc(C)nc1C | 0.0019 (≈ 5.81 µM)
CC(C)(CO)Nc1nc(Cl)nc(NC2CCCCC2)n1 | 0.0365 (≈ 122 µM)
CC(=O)Nc1cccc(C(=O)OCN2C(=O)c3ccccc3C2=O)c1 | 0.0095 (≈ 28.1 µM)
Cc1cccc2nc3ccccc3cc12 | 0.0068 (≈ 35.2 µM)
Cc1ccc(CNC(=O)C2CC=CCC2C(=O)O)cc1 (stereo not given) | > 0.041
CCC(C)NC(=O)c1ccc(-n2c(=S)[nH]c3ccccc3c2=O)cc1 (stereo not given) | 0.0037 (≈ 10.5 µM)
O=C(COc1ccc(Cl)cc1[N+](=O)[O-])N1CCCCC1 | > 0.0448
CCC1(C)Cc2ccccc2-c2nc[nH]c(=O)c21 (stereo not given) | 0.0028 (≈ 11.7 µM)
Cc1cccc(/C=C/c2onc(C)c2[N+](=O)[O-])n1 | 0.0028 (≈ 11.4 µM)
Fc1ccccc1N1CCN(c2ncnc3nc[nH]c23)CC1 | 0.0013 (≈ 4.36 µM)
Cc1ccc(C2SCC(=O)N2Cc2ccccc2)cc1 (stereo not given) | 0.0219 (≈ 77.3 µM)
O=C(CC(=O)c1ccccc1)Nc1cc([N+](=O)[O-])ccc1Cl | 0.0006 (≈ 1.88 µM)
CN1CCN(c2nc3ccccc3o2)CC1 | > 0.0326
Cc1cccc(NC(=S)N2CCC(O)CC2)c1C | 0.0365 (≈ 138 µM)
Cc1ccsc1C(=O)OCC(=O)c1cc(C)n(C)c1C | 0.0037 (≈ 12.7 µM)
O=C(COc1ccc([N+](=O)[O-])cc1Cl)N1CCc2ccccc21 | 0.0024 (≈ 7.21 µM)
COc1ccc(N2CCN(CC(=O)Nc3nc(C)cs3)CC2)cc1 | 0.0496 (≈ 143 µM)
COc1cccc(NC(=O)c2sc(Cl)nc2C)c1 | > 0.0424
CCN(CCNC(=O)c1ccc(C#N)cc1)c1cccc(C)c1 | > 0.0461

SMILES | solubility kinetic [mg/mL]
CN(C)c1ccc(/C=N/O)cc1 | > 0.0246
COC(OC)C(C)NC(=O)NC(=O)c1ccccc1Cl (stereo not given) | 0.0392 (≈ 130 µM)
CC1CC(C)CN(S(=O)(=O)c2cccc3nsnc23)C1 (stereo not given) | 0.0084 (≈ 27 µM)
Cc1sc(NC(=O)c2c(F)cccc2F)nc1-c1ccccc1 | 0.0006 (≈ 1.82 µM)
COc1ccccc1C(C#N)c1cccc(Cl)n1 (stereo not given) | 0.038 (≈ 147 µM)
Cn1c(N)c(C(=O)COC(=O)C2CCCC2)c(=O)n(C)c1=O | > 0.0464
CC1(C)CC2CC(C)(CN2C(=S)Nc2ccccc2)C1 (stereo not given) | 0.0416 (≈ 144 µM)
Cc1ccc(-c2c(NCCc3ccccc3)c(=O)c2=O)cc1 | < 0.0006
COc1ccccc1OCC(=O)Nc1ccncc1 | > 0.0387
CCOc1ccc(C(NC(=O)CC)c2c(O)ccc3ccccc23)cc1 (stereo not given) | 0.002 (≈ 5.72 µM)
CCOCCCNC1=C(Cl)C(=O)c2ccccc2C1=O | 0.0319 (≈ 109 µM)
CCOC(=O)C1=C(C)Nc2nc3ccccc3n2C1c1ccc(O)cc1 (stereo not given) | < 0.0002
CCN(C(=O)Cc1c(C(=O)O)[nH]c2ccccc12)c1ccc(OC)cc1 | > 0.0529
Cc1cccc(Cn2cc(C=O)c3ccccc32)c1 | 0.0145 (≈ 58.2 µM)
CCN(CC)C(=O)Cn1cc(/C=C(\C#N)C(=O)NC2CC2)c2ccccc21 | 0.043 (≈ 118 µM)
COc1ccc(CC(=O)NCCc2ccc(OC)c(OC)c2)cc1 | > 0.0494
COc1ccc(Cl)cc1C(=O)NC(=S)Nc1nc(C)cc(C)n1 | 0.0004 (≈ 1.14 µM)
CCOP(=O)(OCC)C(Nc1cccc([N+](=O)[O-])c1)c1ccccc1 (stereo not given) | 0.0078 (≈ 21.4 µM)
Cc1cccc2cc3ccccc3nc12 | < 0.0004
COc1ccccc1OCC(=O)NC1CC(C)(C)NC(C)(C)C1 | 0.0417 (≈ 130 µM)

SMILES | solubility kinetic [mg/mL]
Cc1nn(CC(=O)NCc2cccnc2)c(C)c1[N+](=O)[O-] | > 0.0434
CC1CC(C)CN(C(=O)COC(=O)c2ccc(S(=O)(=O)N(C)c3ccccc3)cc2)C1 (stereo not given) | 0.0078 (≈ 17.5 µM)
Cc1ccc2nc(NC(=O)COC(=O)c3cccnc3)sc2c1 | 0.0075 (≈ 22.9 µM)
Cn1c(-c2ccccc2[N+](=O)[O-])[n+](C)c2ccccc21.[Cl-] | 0.0429
Cc1ccc(SCC(=O)NCCc2ccccc2)cc1 | 0.0207 (≈ 72.5 µM)
CCCCCCCn1c(C)nnc1-c1cnn(C)c1N | > 0.0415
Cc1ccc(C)c(OC(=O)c2cccnc2Cl)c1C | 0.0148 (≈ 53.7 µM)
c1ccc(CN2CCN(c3ncccn3)CC2)cc1 | 0.0245 (≈ 96.3 µM)
CCN(CC)CCC#CC1(O)c2ccccc2-c2ccccc21 | > 0.0458
Cc1ccc(Cn2c(N3CCNCC3)nc3c2c(=O)[nH]c(=O)n3C)cc1 | 0.0512 (≈ 144 µM)
Cc1ccc(C)c(N2CCN(CCN3CCCCC3)CC2)c1.Cl | 0.0365
CCCCN(CC)C(=O)c1cc2cc3ccc(Cl)cc3nc2o1 | 0.0033 (≈ 9.98 µM)
O=C(COc1ccc(-n2ccnc2)cc1)Nc1cccc(F)c1 | 0.0311 (≈ 99.9 µM)
COc1ccc(OCc2cc(=O)[nH]c3ccccc23)cc1 | 0.0029 (≈ 10.3 µM)
CCOc1ccc(Br)cc1CN(CC)CC.Cl | > 0.0484
CN(C)C(=O)COc1ccc(C(=O)/C=C/c2cccnc2)cc1 | 0.0416 (≈ 134 µM)
Cc1ccccc1OCCCCCCN1CCNCC1.O=C(O)C(=O)O | 0.0495
Fc1ccc(Nc2nc(-c3ccncc3)cs2)cc1 | 0.0008 (≈ 2.95 µM)
Cl.OC1(CNCc2ccccc2)C2CC3CC(C2)CC1C3 (stereo not given) | > 0.0462
CC(=O)c1cccc(NC(=O)C(C)OC(=O)CCc2nc3ccccc3c(=O)[nH]2)c1 (stereo not given) | > 0.0611
